Data on six molecules can be found in article PMC12435405.

Molecules are shown by their SMILES.

The nature of the data set: Double CuAAC of unprotected bis-azido peptide with triethynylphosphine oxide (1.2 eq), CuBr 10 eq, THPTA 20 eq; two-component cyclisation to ethynyl-ditriazolyl-phosphine oxide (EDPO) cyclic peptide; forms two 1,4-triazoles. The following applies: the molecule shown is the open-chain precursor, NaOAc buffer (100 mM, pH 5)/MeCN 20%, ~2% DMSO, 1.0 mM, 25.0 °C, 0.083 h.

Under “30-membered ring”, `[N-]=[N+]=NCCCC[C@H](NC(=O)[C@H](Cc1ccc(O)cc1)NC(=O)[C@H](CC(=O)O)NC(=O)CNC(=O)[C@H](CCCNC(=N)N)NC(=O)[C@H](CCCCN)NC(=O)CN=[N+]=[N-])C(N)=O` [N3-Gly(azidoacetyl)-Lys-Arg-Gly-Asp-Tyr-Lys(N3)-NH2] returned a ring closure, isolated yield of 41%.

Consider `CC(C)C[C@H](NC(=O)CN=[N+]=[N-])C(=O)N[C@@H](Cc1ccc(O)cc1)C(=O)N[C@@H](CCCNC(=N)N)C(=O)N[C@@H](C)C(=O)N[C@@H](CCCCN=[N+]=[N-])C(N)=O` [N3-Gly(azidoacetyl)-Leu-Tyr-Arg-Ala-Lys(N3)-NH2], for which, where the note is “27-membered ring”, the ring closure, isolated yield stood at 39%.

For the setting “37-membered ring”, `CC(=O)N[C@@H](CCC(=O)O)C(=O)N[C@H](C(=O)N[C@@H](Cc1ccccc1)C(=O)N[C@@H](CCCCN=[N+]=[N-])C(=O)N[C@@H](CC(=O)O)C(=O)N[C@@H](CC(C)C)C(=O)N[C@@H](Cc1c[nH]c2ccccc12)C(=O)N[C@@H](CCCNC(=N)N)C(=O)N[C@@H](CC(C)C)C(=O)N[C@@H](CC(C)C)C(=O)N[C@@H](CCCCN=[N+]=[N-])C(=O)N[C@@H](CCC(=O)O)C(=O)N[C@@H](CC(N)=O)C(N)=O)[C@@H](C)O` gave a ring closure, isolated yield of 24%.

For the setting “43-membered ring”, `[N-]=[N+]=NCCCC[C@H](NC(=O)CN)C(=O)N[C@@H](CCCNC(=N)N)C(=O)N[C@@H](CCCNC(=N)N)C(=O)N[C@@H](CCCNC(=N)N)C(=O)N[C@@H](CCCNC(=N)N)C(=O)N[C@@H](CCCNC(=N)N)C(=O)N[C@@H](CCCNC(=N)N)C(=O)N[C@@H](CCCNC(=N)N)C(=O)N[C@@H](CCCNC(=N)N)C(=O)N[C@@H](CCCCN=[N+]=[N-])C(=O)NCC(N)=O` showed a ring closure, isolated yield of 27%.

`[N-]=[N+]=NCCCC[C@H](NC(=O)CN)C(=O)N[C@@H](CCCNC(=N)N)C(=O)N[C@@H](CCCNC(=N)N)C(=O)N[C@@H](CCCNC(=N)N)C(=O)N[C@@H](CCCNC(=N)N)C(=O)N[C@@H](CCCNC(=N)N)C(=O)N[C@@H](CCCNC(=N)N)C(=O)N[C@@H](CCCNC(=N)N)C(=O)N[C@@H](CCCNC(=N)N)C(=O)N[C@@H](CCCNC(=N)N)C(=O)N[C@@H](CCCNC(=N)N)C(=O)N[C@@H](CCCCN=[N+]=[N-])C(=O)NCC(N)=O`: the ring closure, isolated yield (49-membered ring) turned out to be 18%.

In turn, `[N-]=[N+]=NCCCC[C@H](NC(=O)[C@@H](CCCNC(=N)N)NC(=O)[C@H](CCCNC(=N)N)NC(=O)[C@@H](CCCCN)NC(=O)[C@H](CCCCN)NC(=O)[C@@H](CCCNC(=N)N)NC(=O)CNC(=O)[C@@H](CCCNC(=N)N)NC(=O)[C@H](CCCNC(=N)N)NC(=O)[C@@H](CCCNC(=N)N)NC(=O)[C@@H](N)CCCCN=[N+]=[N-])C(N)=O` gave a ring closure, isolated yield (46-membered ring) of 39%.
